# What was measured:
# [1] = system: rabbit serum obtained by immunizing a rabbit with the SARS-CoV strain Frankfurt 1; type: binding; design: Binding of a rabbit serum to linear peptides / Binding of a rabbit serum to looped peptides / Rabbit serum linear peptides / Rabbit serum looped peptides / Binding of a rabbit serum to linear peptides of protein N of SARS-CoV Urbani (Rabbit serum linear peptides) / Binding of a rabbit serum to looped/cyclic peptides of protein N of SARS-CoV Urbani (Rabbit serum looped peptides): unit not given here
# [2] = system: control sera (pooled serum of ten healthy LUMC hospital workers; commercial negative donor pooled serum from the Dutch bloodbank); type: binding, human; design: Binding of Control serum LUMC to linear peptides / Binding of Control serum Blood-bank to linear peptides / Binding of Control serum LUMC to looped peptides / Binding of Control Serum Blood-Bank to Looped peptides / Binding of Control serum LUMC to linear peptides of the protein M of SARS-CoV Urbani / Binding of Control serum Blood-bank to linear peptides of the protein M of SARS-CoV Urbani / Binding of Control serum LUMC to looped peptides of the protein M of SARS-CoV Urbani / Binding of Control Serum Blood-Bank to Looped peptides of the protein M of SARS-CoV Urbani: unit not given here
# [3] = system: antibodies in sera from SARS patients (sera 1a, 1b, 2, 6, 37, 62, London, SARS-yellow, SARS-green); type: binding, human; design: Binding of serum 6 to linear peptides of protein X1 of SARS-CoV Urbani / Binding of serum 37 to linear peptides of protein X1 of SARS-CoV Urbani / Binding of serum 6 to looped/cyclic peptide (PEPSCAN-ELISA) / Binding of serum 37 to looped/cyclic peptide (PEPSCAN-ELISA) / Binding of serum 37 to looped/cyclic peptides of protein X1 of SARS-CoV Urbani / Binding of serum 6 to linear peptides of protein X2 / Binding of serum 37 to linear peptides of protein X2 / Binding of serum 37 to looped/cyclic peptides of protein X2 of SARS-CoV Urbani / Binding of serum 6 to linear peptides of protein M of SARS-CoV Urbani / Binding of serum 37 to linear peptides of protein M of SARS-CoV Urbani / Binding of serum 6 to looped/cyclic peptides of protein M of SARS-CoV Urbani / Binding of serum 37 to looped/cyclic peptides of protein M of SARS-CoV Urbani / Binding of serum 6 to linear peptides of protein X3 of SARS-CoV Urbani / Binding of serum 37 to linear peptides of protein X3 of SARS-CoV Urbani / Binding of serum 37 to looped/cyclic peptides of protein X3 of SARS-CoV Urbani / Binding of serum 6 to linear peptides of protein X4 of SARS-CoV Urbani / Binding of serum 37 to linear peptides of protein X4 of SARS-CoV Urbani / Binding of serum 37 to looped/cyclic peptides of protein X4 of SARS-CoV Urbani / Binding of serum 6 to linear peptides of protein X5 of SARS-CoV Urbani / Binding of serum 37 to linear peptides of protein X5 of SARS-CoV Urbani / Binding of serum 37 to looped/cyclic peptides of protein X5 of SARS-CoV Urbani / Binding of serum 6 to linear peptides of protein N of SARS-CoV Urbani / Binding of serum 37 to linear peptides of protein N of SARS-CoV Urbani / Binding of serum 6 to linear peptide (PEPSCAN-ELISA) / Binding of serum 1a to looped/cyclic peptides of protein N of SARS-CoV Urbani / Binding of serum 1b to looped/cyclic peptides of protein N of SARS-CoV Urbani / Binding of serum 2 to looped/cyclic peptides of protein N of SARS-CoV Urbani / Binding of serum 6 to looped/cyclic peptides of protein N of SARS-CoV Urbani / Binding of serum 37 to looped/cyclic peptides of protein N of SARS-CoV Urbani / Binding of serum 62 to looped/cyclic peptides of protein N of SARS-CoV Urbani / Binding of serum London to looped/cyclic peptides of protein N of SARS-CoV Urbani / Binding of serum SARS-green to looped/cyclic peptides of protein N of SARS-CoV Urbani: unit not given here
sequence,measurement,setting,value
ILLNVPLRGTIVTRP,Rabbit serum linear peptides,[1],0.0
same,Rabbit serum looped peptides,[1],0.2
same,Binding of Control Serum Blood-Bank to Looped peptides of the protein M of SARS-CoV Urbani,[2],0.5
same,Binding of Control serum Blood-bank to linear peptides of the protein M of SARS-CoV Urbani,[2],0.6
same,Binding of Control serum LUMC to linear peptides of the protein M of SARS-CoV Urbani,[2],0.4
same,Binding of Control serum LUMC to looped peptides of the protein M of SARS-CoV Urbani,[2],0.5
same,Binding of serum 1a to linear peptides of protein M of SARS-CoV Urbani,[3],0.6
same,Binding of serum 1b to linear peptides of protein M of SARS-CoV Urbani,[3],0.4
same,Binding of serum 2 to linear peptides of protein M of SARS-CoV Urbani,[3],0.4
same,Binding of serum 6 to linear peptides of protein M of SARS-CoV Urbani,[3],0.2
same,Binding of serum 37 to linear peptides of protein M of SARS-CoV Urbani,[3],0.4
same,Binding of serum 62 to linear peptides of protein M of SARS-CoV Urbani,[3],0.4
same,Binding of serum London to linear peptides of protein M of SARS-CoV Urbani,[3],0.3
same,Binding of serum SARS-green to linear peptides of protein M of SARS-CoV Urbani,[3],0.4
same,Binding of serum SARS-yellow to linear peptides of protein M of SARS-CoV Urbani,[3],0.2
same,"Recognition of the peptide by sera of SARS-CoV infected individuals, and form (linear, looped/cyclic) in which it is recognized",[3],recognized in looped/cyclic form
LHKLLQTLVLKMLHS,Binding of a rabbit serum to linear peptides,[1],0.2
same,Binding of a rabbit serum to looped peptides,[1],0.4
same,Binding of Control Serum Blood-Bank to Looped peptides,[2],0.8
same,Binding of Control serum Blood-bank to linear peptides,[2],0.5
same,Binding of Control serum LUMC to linear peptides,[2],0.3
same,Binding of Control serum LUMC to looped peptides,[2],0.7
same,Binding of serum 1a to linear peptides of protein X2,[3],0.6
same,Binding of serum 1a to looped/cyclic peptides of protein X2 of SARS-CoV Urbani,[3],0.6
same,Binding of serum 1b to linear peptides of protein X2,[3],0.0
same,Binding of serum 1b to looped/cyclic peptides of protein X2 of SARS-CoV Urbani,[3],0.5
same,Binding of serum 2 to linear peptides of protein X2,[3],0.4
same,Binding of serum 2 to looped/cyclic peptides of protein X2 of SARS-CoV Urbani,[3],0.4
same,Binding of serum 6 to linear peptides of protein X2,[3],0.3
same,Binding of serum 6 to looped/cyclic peptides of protein X2 of SARS-CoV Urbani,[3],0.6
same,Binding of serum 37 to linear peptides of protein X2,[3],0.4
same,Binding of serum 37 to looped/cyclic peptides of protein X2 of SARS-CoV Urbani,[3],0.4
same,Binding of serum 62 to linear peptides of protein X2,[3],0.5
same,Binding of serum 62 to looped/cyclic peptides of protein X2 of SARS-CoV Urbani,[3],0.6
same,Binding of serum London to linear peptides of protein X2,[3],0.4
same,Binding of serum London to looped/cyclic peptides of protein X2 of SARS-CoV Urbani,[3],1.0
same,Binding of serum SARS-green to linear peptides of protein X2,[3],0.6
same,Binding of serum SARS-green to looped/cyclic peptides of protein X2 of SARS-CoV Urbani,[3],0.4
same,Binding of serum SARS-yellow to linear peptides of protein X2,[3],0.3
same,Binding of serum SARS-yellow to looped/cyclic peptides of protein X2 of SARS-CoV Urbani,[3],0.7
RGNTYSTAWLCALGK,Rabbit serum linear peptides,[1],1.3
same,Rabbit serum looped peptides,[1],0.8
same,Binding of Control Serum Blood-Bank to Looped peptides,[2],0.4
same,Binding of Control serum Blood-bank to linear peptides,[2],1.0
same,Binding of Control serum LUMC to linear peptides,[2],0.6
same,Binding of Control serum LUMC to looped peptides,[2],0.6
same,Binding of serum 1a to linear peptides of protein X5 of SARS-CoV Urbani,[3],0.9
same,Binding of serum 1a to looped/cyclic peptides of protein X5 of SARS-CoV Urbani,[3],0.4
same,Binding of serum 1b to linear peptides of protein X5 of SARS-CoV Urbani,[3],0.6
same,Binding of serum 1b to looped/cyclic peptides of protein X5 of SARS-CoV Urbani,[3],0.3
same,Binding of serum 2 to linear peptides of protein X5 of SARS-CoV Urbani,[3],0.9
same,Binding of serum 2 to looped/cyclic peptides of protein X5 of SARS-CoV Urbani,[3],0.6
same,Binding of serum 6 to linear peptides of protein X5 of SARS-CoV Urbani,[3],0.7
same,Binding of serum 6 to looped/cyclic peptides of protein X5 of SARS-CoV Urbani,[3],0.9
same,Binding of serum 37 to linear peptides of protein X5 of SARS-CoV Urbani,[3],0.8
same,Binding of serum 37 to looped/cyclic peptides of protein X5 of SARS-CoV Urbani,[3],0.5
same,Binding of serum 62 to linear peptides of protein X5 of SARS-CoV Urbani,[3],0.8
same,Binding of serum 62 to looped/cyclic peptides of protein X5 of SARS-CoV Urbani,[3],0.7
same,Binding of serum London to linear peptides of protein X5 of SARS-CoV Urbani,[3],0.8
same,Binding of serum London to looped/cyclic peptides of protein X5 of SARS-CoV Urbani,[3],1.4
same,Binding of serum SARS-green to linear peptides of protein X5 of SARS-CoV Urbani,[3],0.6
same,Binding of serum SARS-green to looped/cyclic peptides of protein X5 of SARS-CoV Urbani,[3],0.3
same,Binding of serum SARS-yellow to linear peptides of protein X5 of SARS-CoV Urbani,[3],0.3
same,Binding of serum SARS-yellow to looped/cyclic peptides of protein X5 of SARS-CoV Urbani,[3],0.5

# Source: patent publication US20070128217A1 (priority 2003, published 2007)
